Measured values as given in patent publication US20230416207A1, “CRYSTALLINE FORMS OF QUINAZOLINONE COMPOUND AND PROCESS FOR PREPARING THE SAME” (priority 2020, published 2023).
≈ marks a conversion by molar mass, not a printed value.

Columns and labels:
Type in all cases: physicochemical
[1] = Solubility of crystalline forms in simulated gastric fluid (SGF)
Text: (§1) The UPLC data of the present disclosure were collected on Waters H Class, with photo-diode array detector. The UPLC parameters for purity and solubility test of the present disclosure were as follows: • 1. Column: Waters Xbridge C18, 150×4.6 mm, 5 μm • 2. Mobile phase: A: 0.05% trifluoroacetic acid in water; B: 0.05% trifluoroacetic acid in acetonitrile
Suspend Forms D, AL, and Z of the present disclosure and Form B in the prior art in simulated gastric fluid (SGF) to form suspensions, respectively. After equilibrium for 1 hour, 2 hours and 4 hours, filter the suspensions to form saturated solutions. Determine the concentration of API in corresponding saturated solution by HPLC.

[2] = Crystal habit study (PLM); settings: for Crystal habit (PLM): dispersed in vacuum pump oil; for Powder flow property: inferred from PLM crystal habit
Protocol: The polarized light microscope photos of the present disclosure were taken at room temperature with a Zeiss microscope Axio Scope.A1 equipped with an Axiocam 305 color camera and 5×, 10×, 20× and 50× objective lenses.
Weigh about 10 mg of Forms Z and AL of the present disclosure onto a glass slide, respectively. Disperse each solid with several vacuum pump oil, and then cover with a cover glass. Observe the sample using PLM.

[3] = Hygroscopicity study (DVS); settings: for Water uptake at 80% RH: 25° C.; for Hygroscopicity: class per Chinese Pharmacopoeia 2010
Protocol: The dynamic vapor sorption diagrams of the present disclosure were collected on Intrinsic-type and Intrinsic Plus-type dynamic vapor sorption instruments of SMS company. The process parameters of the dynamic vapor sorption test of the present disclosure were as follows: • Temperature: 25° C. • Protection gas and its flow rate: N2, 200 mL/minute • dm/dt: 0.002%/minute • Minimum dm/dt equilibration time: 10 minutes • Maximum Equilibration Time: 180 minutes • Relative humidity range: 0% RH-95% RH-0% RH • Relative humidity gradient: 10% (0% RH-90% RH-0% RH), 5% (90% RH-95% RH and 95% RH-90% RH).
Weigh approximately 10 mg of Form Z of the present disclosure and Form B in the prior art for DVS test, and then collect the obtained solid for XRPD analysis. The results were summarized in Table 19, DVS plot of Form B was shown in FIG. 29, XRPD overlay of Form B was shown in FIG. 30, DVS plot of Form Z was shown in FIG. 31, and XRPD overlay of Form Z was shown in FIG. 32.
Description and definition of hygroscopicity (see appendix XIX J, guidance for hygroscopicity evaluation of Pharmacopoeia of the People's Republic of China 2010) • Deliquescent: sufficient water is absorbed to form a liquid, • Very hygroscopic: increase in mass is equal to or greater than 15 percent, • Hygroscopic: increase in mass is less than 15 percent and equal to or greater than 2 percent, • Slightly hygroscopic: increase in mass is less than 2 percent and equal to or greater than 0.2 percent. • Non-hygroscopic: increase in mass is less than 0.2 percent.

[4] = Particle size distribution study (laser particle size analyzer); settings: for D10 / D50 / D90 / MV: wet method, Isopar G (0.2% lecithin), sonication 30 s
Protocol: The particle size distribution results of the present disclosure were collected on S3500-type laser particle size analyzer of the Microtrac company. The Microtrac S3500 was equipped with an SDC (Sample Delivery Controller) sampling system. The wet method was used in this test, using Isopar G (containing 0.2% lecithin) as the test dispersion medium. The process parameters of the laser particle size analyzer were as follows.
Approximately 10-30 mg of Form D of the present disclosure and Form B in the prior art were added into 5 mL Isopar G (0.2% lecithin) to form a suspension, respectively. The suspension was mixed well and then loaded into SDC loading system. Adjust the shading intensity to an appropriate range, and then started to collect data after sonication for 30 s. The results were summarized in Table 20, and the particle size distribution diagrams of Form D and Form B were shown in FIGS. 35 to 36, respectively.

[5] = Solubility of crystalline forms in fasted-state simulated intestinal fluid (FaSSIF)
Text: as §1
Suspend Forms D and Z of the present disclosure and Form B in the prior art in fasted-state simulated intestinal fluid (FaSSIF) to form suspensions, respectively. After equilibrium for 1 hour, 2 hours and 4 hours, filter the suspensions to form saturated solutions. Determine the concentration of API in corresponding saturated solution by HPLC.

## CC(C)c1nc2cc(O)ccc2c(=O)n1-c1ccc(C#N)cc1 [Form AL, 4-(7-hydroxy-4-oxo-2-propan-2-ylquinazolin-3-yl) benzonitrile]
[1]
  Solubility compared with Form B: better solubility than Form B
[1]; equilibrium 1 hr
  Solubility in SGF: 77.4 µg/mL (≈ 253 µM)
[1]; equilibrium 2 hr
  Solubility in SGF: 78.8 µg/mL (≈ 258 µM)
[1]; equilibrium 4 hr
  Solubility in SGF: 79.5 µg/mL (≈ 260 µM)
[2]
  Crystal habit (PLM): regular particles
  Powder flow property: relatively good property on powder flow

## CC(C)c1nc2cc(O)ccc2c(=O)n1-c1ccc(C#N)cc1 [Form B, 4-(7-hydroxy-4-oxo-2-propan-2-ylquinazolin-3-yl) benzonitrile, reference compound]
[3]
  Water uptake at 80% RH: 0.2485
  Hygroscopicity: Slightly hygroscopic (increase in mass is less than 2 percent and equal to or greater than 0.2 percent)
[4]
  D10: 62.3 μm
  D50: 1085.0 μm
  D90: 1331.0 μm
  MV: 795.2 μm
[1]; equilibrium 1 hr
  Solubility in SGF: 77.5 µg/mL (≈ 254 µM)
[1]; simulated gastric fluid (SGF), simulated gastric fluid, thermodynamic from solid, equilibrium 2 hr
  solubility at 2 h: 75.2 µg/mL (≈ 246 µM)
[1]; simulated gastric fluid (SGF), simulated gastric fluid, thermodynamic from solid, equilibrium 4 hr
  solubility at 4 h: 73.6 µg/mL (≈ 241 µM)
[5]; equilibrium 1 hr
  Solubility in FaSSIF: 33.3 µg/mL (≈ 109 µM)
[5]; equilibrium 2 hr
  Solubility in FaSSIF: 34.8 µg/mL (≈ 114 µM)
[5]; equilibrium 4 hr
  Solubility in FaSSIF: 35.9 µg/mL (≈ 118 µM)

## CC(C)c1nc2cc(O)ccc2c(=O)n1-c1ccc(C#N)cc1 [Form D, 4-(7-hydroxy-4-oxo-2-propan-2-ylquinazolin-3-yl) benzonitrile]
[4]
  Uniformity of particle size distribution compared with Form B: more uniform particle size distribution than Form B
  D10: 53.9 μm
  D50: 117.2 μm
  D90: 175.9 μm
  MV: 116.2 μm
[1]
  Solubility compared with Form B: better solubility than Form B
[1]; equilibrium 1 hr
  Solubility in SGF: 98.7 µg/mL (≈ 323 µM)
[1]; equilibrium 2 hr
  Solubility in SGF: 95.4 µg/mL (≈ 312 µM)
[1]; equilibrium 4 hr
  Solubility in SGF: 103.3 µg/mL (≈ 338 µM)
[5]
  Solubility compared with Form B: better solubility than Form B
[5]; equilibrium 2 hr
  Solubility in FaSSIF: 88.3 µg/mL (≈ 289 µM)
[5]; equilibrium 4 hr
  Solubility in FaSSIF: 87.1 µg/mL (≈ 285 µM)

## CC(C)c1nc2cc(O)ccc2c(=O)n1-c1ccc(C#N)cc1 [Form Z, 4-(7-hydroxy-4-oxo-2-propan-2-ylquinazolin-3-yl) benzonitrile]
[3]
  Hygroscopicity compared with Form B: relatively lower hygroscopicity than Form B
  Water uptake at 80% RH: 0.0303
  Hygroscopicity: Non-hygroscopic (increase in mass is less than 0.2 percent)
[1]
  Solubility compared with Form B: better solubility than Form B
[1]; equilibrium 1 hr
  Solubility in SGF: 79.6 µg/mL (≈ 261 µM)
[1]; equilibrium 2 hr
  Solubility in SGF: 90.7 µg/mL (≈ 297 µM)
[1]; equilibrium 4 hr
  Solubility in SGF: 86.7 µg/mL (≈ 284 µM)
[2]
  Crystal habit (PLM): regular particles
  Powder flow property: relatively good property on powder flow
[5]
  Solubility compared with Form B: better solubility than Form B
[5]; equilibrium 1 hr
  Solubility in FaSSIF: 31.4 µg/mL (≈ 103 µM)
[5]; equilibrium 2 hr
  Solubility in FaSSIF: 42.7 µg/mL (≈ 140 µM)
[5]; fasted-state simulated intestinal fluid (FaSSIF), thermodynamic from solid, equilibrium 4 hr
  solubility at 4 h: 56.1 µg/mL (≈ 184 µM)
